Measured values reported in patent US4289765A, “4-Aminopyridines and medicaments containing the same” (Hoechst Aktiengesellschaft, priority 1979, dated 1981).
Counter-ions that a name gives are not always drawn. Like-named read-outs stand apart in the source and are kept apart here.

What was measured:
[1] = test system: experimental bronchial spasms caused by serotonin; experiment: Bronchospasmolytic action, serotonin-induced bronchial spasm (Konzett and Roessler); format: in vivo, guinea pig; conditions: Cavia porcellus, urethane-anaesthetized guinea pigs, dose reducing spasm to 50%, read-out: Bronchospasmolytic action (ED50) as compared with serotonin
Method: (§1) The test substances were administered in an aqueous solution either by the intravenous (i.v.) or the intraduodenal (i.d.) route. Water-insoluble compounds were applied i.d. in carboxymethyl cellulose suspensions.

[2] = test system: experimental bronchial spasms caused by histamine; experiment: Bronchospasmolytic action, histamine-induced bronchial spasm (Konzett and Roessler); format: in vivo, guinea pig; conditions: Cavia porcellus, urethane-anaesthetized guinea pigs, dose reducing spasm to 50%, read-out: Bronchospasmolytic action (ED50) as compared with histamine
Method: as §1

[3] = test system: experimental bronchial spasms caused by acetyl choline; experiment: Bronchospasmolytic action, acetyl choline-induced bronchial spasm (Konzett and Roessler); format: in vivo, guinea pig; conditions: Cavia porcellus, urethane-anaesthetized guinea pigs, dose reducing spasm to 50%, read-out: Bronchospasmolytic action (ED50) as compared with acetyl choline
Method: as §1

[4] = in vivo; conditions: mouse, ip
Method: The LD50 values or the LD50 ranges were determined according to common standards via the mortality occurring over 7 days with NMRI mice following a single intraperitoneal (i.p.) administration.

Compound	ED50 ([1]; iv) [mg/kg]	ED50 ([1]; i.d. (intraduodenal)) [mg/kg]	ED50 ([2]; iv) [mg/kg]	ED50 ([2]; i.d. (intraduodenal)) [mg/kg]	ED50 ([3]; iv) [mg/kg]	ED50 ([3]; i.d. (intraduodenal)) [mg/kg]	LD50 at 168 h [4] [mg/kg]
Cc1cc(N2CCSCC2)c([N+](=O)[O-])c(C)n1 [Example 1, 4-(2,6-Dimethyl-3-nitro-4-pyridyl)-thiomorpholinohydrochloride]	1.32	2.52	1.05	2.6	1.47	4.13	160
Cc1cc(N2CCOCC2)c([N+](=O)[O-])c(C)n1 [Example 9]	–	–	1 to 3	–	3 to 10	–	300 to 1000
Cc1cc(N2CCSCC2)c(C#N)c(C)n1 [Example 13]	3	–	1 to 3	1 to 3	3	3 to 10	150 to 300
CCCc1cc(N2CCSCC2)c([N+](=O)[O-])c(CCC)n1 [Example 14]	3 to 10	–	3	–	1 to 3	–	300 to 600
Cc1cc(N2CCSC(C)C2)c([N+](=O)[O-])c(C)n1 (centres unmarked) [Example 15]	–	–	3 to 10	–	3 to 10	–	150 to 300
COC(CNc1cc(C)nc(C)c1[N+](=O)[O-])OC [Example 17]	–	–	> 10	–	3 to 10	–	400 to 800
Cc1cc(NCCCl)c([N+](=O)[O-])c(C)n1 [Example 18]	1 to 3	–	3	–	1 to 3	–	150 to 300
Cc1cc(NCc2ccc3c(c2)OCO3)c([N+](=O)[O-])c(C)n1 [Example 22]	–	–	3	–	3 to 10	–	–
Cc1cc(NCc2ccc(S(N)(=O)=O)cc2)c([N+](=O)[O-])c(C)n1 [Example 23]	–	–	3 to 10	–	1 to 3	–	600 to 1200
COc1ccc(CNc2cc(C)nc(C)c2[N+](=O)[O-])cc1 [Example 24]	1 to 3	–	0.3 to 1	–	1 to 3	–	> 600
Cc1cc(NCCF)c([N+](=O)[O-])c(C)n1 [Example 32]	1 to 3	–	1	–	3 to 10	–	150 to 300
Cn1c(=O)c2[nH]cnc2n(C)c1=O [theophylline-ethylene diamine, reference compound]	7.3	–	5.6	–	8.3	10 to 20	–
